From patent publication US12583845B2, “Compositions and methods for treating diseases, disorders and conditions involving trinucleotide repeats” (The Research Foundation for the State University of New York, priority 2021, dated 2026) come the findings set out here.

Entries after “also recorded” stand apart in the source; their conditions may differ.

In one data set the test system is DM1 myoblasts. As to the kind of experiment: RT-PCR analysis of mis-splicing events in DM1 myoblasts. It is filed as cell-based, human. The conditions noted are these: nanomolar concentrations, FIG. 2D. An excerpt: (§1) FIG. 2A presents the chemical structures of furamidine, HM19A and HM19B. […] (ANOVA two-tailed test, *p<0.05 and **p<0.01).
Another data set concerns DM2 fibroblasts. As to the kind of experiment: RT-PCR analysis of INSR exon 11 mis-splicing in DM2 fibroblasts. It is filed as cell-based, human. The conditions noted are these: FIG. 2B. Here is the method:
as §1
(§2) DM splicing panel analysis: MPCs are evaluated starting with HM19A &19B in control and DM cells using a 5-point dose-response treatment. Data from the characterization of multiple DM1 & DM2 fibroblast supports this splicing panel and the utility of fibroblasts as a screening tool (See FIGS. 7A-E).

For the next data set, the system named is DM1 and DM2 cell lines. As to the kind of experiment: Splicing rescue and toxicity in DM1 and DM2 patient-derived cell lines. It is filed as cell-based, human. The conditions noted are these: DM fibroblasts and myotubes; nanomolar range where stated.
Excerpt: Referring to FIG. 1, Step 2, a process flow includes characterizing the best-in-class MPCs for in cellulo activity and therapeutic potential. Rationale and preliminary data: Because of the multisystemic nature of pathogenesis in myotonic dystrophy, it is desirable to evaluate the therapeutic potential of excellent MPCs in multiple DM cellular models as well as in control models in order to best prioritize compounds for in vivo testing. The cellular activity of MPC lead panel is systematically evaluated starting with HM19A & HM19B in 2 independent DM1 and DM2 patient-derived fibroblast lines and 2 independent DM1 myoblast/myotube differentiation models along with age and gender-matched control cell lines. Potential blood brain barrier penetrance is evaluated using the established MDR1-MDCK monolayer assay. This aim will facilitate the informed selection of the top performing compounds in cellular studies for testing in animal models of DM (See e.g., FIG. 1, step 3).
as §2

Another data set relates to DM1 fibroblasts. The experiment in a line: RT-PCR analysis of INSR exon 11 mis-splicing in DM1 fibroblasts. It is filed as cell-based, human. Particulars: FIG. 2B. The protocol:
as §1, §2

Another data set concerns Dmpk^480/480 mice. The experiment in a line: RT-PCR splicing rescue in Dmpk480/480 DM1 mouse model (choroid plexus/CNS). The class given is in vivo. Particulars: for RT-PCR splicing rescue of Lnf2 exon22: choroid plexus of Dmpk^480/480 mice (N=2), 10 mg/kg, FIG. 8B. From the text:
(§3) New MPCs, including HM33, are being systematically designed to study bioavailability. […] Systematic modification of current MPCs (See e.g., FIGS. 5A and 5B) is used to assess the contribution of each change to bioavailability with the goal of improving BBB and other organ penetration.
(§4) Short-term Studies: To select excellent candidates for long-term studies, cohorts (N=6) of one-month old age- and gender-matched animals from both muscle (homozygous HSALR/LR or heterozygous HSAXLR) and brain (Dmpk480/480) mouse models are treated. Both transgenic (N=6) and matching wild-type (N=6) mice are treated every two days at 3 different concentrations of lead MPCs (2, 5 and 10 mg/kg) or PBS via IP injection for a period of 1 week. The 48-hour injection schedule and starting concentrations are based upon previous treatment regimens and preliminary pharmacokinetic analysis. However, the schedule or treatments is subject to change depending upon the candidate compound's history and performance in e.g., Steps 1 and 2 of FIG. 1. After 1 week of treatment, mice are tested for health (body weight, body condition score) then sacrificed, and muscle tissue (tibialis anterior, vastus lateralis, liver, kidney & brain) harvested and tested for in vivo changes in molecular (foci, splicing and MBNL1 colocalization) and histopathological features (central nuclei, HSA-based models only). To assess molecular features, frozen muscle samples are tested for: mis-splicing changes (RT-PCR and RNAseq); transgene and endogenous DMPK expression (qRT-PCR); off-target effects (RNAseq); RNA foci (FISH); MBNL1 colocalization (FISH/IF); CLCN1 staining (IF); and central nuclei (H&E). Frozen muscle and brain samples from each mouse model are analyzed by UPLC-MS/MS to determine preliminary bioavailability, which is correlated with molecular activity (muscle only for HSA-based and brain only for DMPK480/480) to assess therapeutic potential.

The next data set deals with HSA^LR/LR mice. The experiment in a line: RT-PCR splicing rescue in HSALR/LR DM1 mouse model (muscle). The class given is in vivo. The conditions noted are these: for rescue of mis-splicing (DM1 splicing) in HSALR mice: HSALR mouse model; for RT-PCR splicing rescue of Atp2a1 exon 22: TA muscle of HSA^LR/LR mice (N=2), 7 days, FIG. 8A.
Excerpt: as §3
as §4, with “The” for “Short-term Studies: To select excellent candidates for long-term studies, cohorts (N=6) of one-month old age- and gender-matched animals from both muscle (homozygous HSALR/LR or heterozygous HSAXLR) and brain (Dmpk480/480) mouse models are treated. Both transgenic (N=6) and matching wild-type (N=6) mice are treated every two days at 3 different concentrations of lead MPCs (2, 5 and 10 mg/kg) or PBS via IP injection for a period of 1 week. The”

The subject of a further data set is DM1 fibroblast. The experiment in a line: MTT cell viability in DM1 fibroblast. It is filed as cell-based, human. The conditions noted are these: for MTT cell viability: DM1 fibroblast, low micromolar concentrations, FIG. 2C. Here is the method:
as §1
Effects on cellular health: To monitor the overall health of cells, treated vs. untreated control and DM patient fibroblast and myoblast/myotube lines are tested across a dose range where one observes a reduction in toxic CUG/CCUG RNA levels and rescue of mis-splicing. Cell health is monitored using the lactate dehydrogenase (LDH) and methylthiazol tetrazolium (MTT) assays, to measure membrane integrity (cell death) and metabolic activity (cell viability), along with monitoring rates of cell growth. Mutagenicity is assessed using the Ames test. Alterations in cell death, cell viability and rates of cell growth and mutagenicity is combined with data from control cells to determine the overall effect on cell health due to MPC treatment. As shown in FIGS. 2A-2E, HM19B rescues splicing at more than 50-fold lower concentrations than at concentrations where cell death is starting to be observed.

Another data set relates to CUG repeat RNA. The experiment in a line: Circular dichroism (CD) spectroscopy with CUG repeat RNA. The class given is binding.
The subject of a further data set is patient-derived myotubes. The experiment in a line: DM1 splicing rescue in patient-derived myotubes. The class given is cell-based, human.

Regarding `CN1CCN(c2ccc3nc(-c4ccc(-c5ccc6c(c5)oc5cc(-c7ccc(-c8nc9ccc(N%10CCN(C)CC%10)cc9[nH]8)cc7)ccc56)cc4)[nH]c3c2)CC1` [HM19B], in the data set with DM1 myoblasts, the “rescue of MBNL1 exon 5 mis-splicing” value is reported as “promising rescue” and the “rescue of MBNL2 exon 5 mis-splicing” value was “promising rescue”. Also, the “rescue of INSR exon 11 mis-splicing” value in the data set with DM2 fibroblasts is reported as “strong rescue”. The “splicing rescue in patient-derived cell lines” value in the data set with DM1 and DM2 cell lines was “splicing rescue at the nanomolar concentration; also recorded: significantly rescuing mis-splicing”. The “rescue of INSR exon 11 mis-splicing” value in the data set with DM1 fibroblasts is on record as “strong rescue”. The “rescue in the CNS compared to DB829” value in the data set on Dmpk^480/480 mice (Dmpk^480/480 mice, FIG. 8C) is given as “reduced rescue”. Besides, in the data set with Dmpk^480/480 mice, the “RT-PCR splicing rescue of Lnf2 exon22” value is recorded as “splicing rescue”. Besides, the “rescue in the Dmpk480/480 mice” value in the data set on Dmpk^480/480 mice (early preliminary data) was “capable of rescue”. Also, in the data set with HSA^LR/LR mice, the “rescue of mis-splicing (DM1 splicing) in HSALR mice” value is “significantly rescuing mis-splicing” and the “RT-PCR splicing rescue of Atp2a1 exon 22” value is on record as “splicing rescue”. The MTT cell viability result in the data set on DM1 fibroblast is given as “no effect on viability”. In addition, the “concentration margin between splicing rescue and concentrations where cell death is starting to be observed” value in the data set with DM1 fibroblast (FIGS. 2A-2E) is listed as “more than 50 fold”. Moreover, the “interaction with CUG repeat RNA by CD spectroscopy” value with CUG repeat RNA is “surface interaction between ligand and substrate”.
Consider `c1ccc2[nH]c(-c3ccc(-c4ccc(-c5ccc(-c6nc7ccccc7[nH]6)cc5)o4)cc3)nc2c1` [HM19A], for which the “rescue of INSR exon 11 mis-splicing” value in the data set with DM2 fibroblasts is reported as “strong rescue”. For the same molecule, the “splicing rescue in patient-derived cell lines” value in the data set on DM1 and DM2 cell lines was “significantly rescuing mis-splicing”. Also, the “rescue of INSR exon 11 mis-splicing” value in the data set with DM1 fibroblasts was “strong rescue”. Also, in the data set with HSA^LR/LR mice, the “rescue of mis-splicing (DM1 splicing) in HSALR mice” value was “significantly rescuing mis-splicing” and the “RT-PCR splicing rescue of Atp2a1 exon 22” value is recorded as “splicing rescue”. The MTT cell viability entry with DM1 fibroblast is “no effect on viability”.
As for `N=C(N)c1ccc(-c2ccc(-c3ccc(C(=N)N)cn3)o2)nc1` [DB829, reference compound], the “RT-PCR splicing rescue of Lnf2 exon22” value in the data set with Dmpk^480/480 mice was “splicing rescue”.
Consider `COc1cc2c(c(OC)c1OC)-c1ccc(OC)c(=O)cc1[C@@H](NC(C)=O)CC2` [colchicine], for which the “rescue of DM1 splicing” value in the data set on patient-derived myotubes was “rescue DM1 splicing”.
